Patent EP2608783B1, “USE OF GLYCYRRHETINIC ACID, GLYCYRRHIZIC ACID AND RELATED COMPOUNDS FOR PREVENTION AND/OR TREATMENT OF PULMONARY FIBROSIS” (Zhang, Lurong, priority 2010, dated 2012)

Legend:
IR-induced pneumonitis [1] = test: Clinical case: GLA tablets in a lung cancer patient receiving 2nd IR treatment; assay type: in vivo; settings: one patient
Method: In collaboration with radiation oncologists at the First Affiliated Hospital of Fujian Medical School in China, GLA tablets (produced by Minophagen Co. in Japan and available in pharmacies in China) were administered to a patient who received their 2nd IR treatment for lung cancer. […] To control the progression of pneumonitis, they received dexamethasone treatment. Due to tumor re-growth 9 months after their 1st IR treatment, they received a 2nd IR treatment with warnings that IR may worsen pneumonitis. In order to mitigate IR-induced lung injury, GLA was administered at a dose of 150 mg per day (equivalent to GA about 85 mg per day) starting from the date of 2nd IR treatment for 3 months. The result was unexpectedly surprising.

[2] = test system: IR-induced pulmonary fibrosis; test: Respiratory rate (rodent ventilator with pressure plethysmograph) in IR-induced pulmonary fibrosis; assay type: in vivo, mice; settings: GA 30-40 mg/kg q.o.d. or twice/week for 3 months; 7 months after IR at 15 Gy, 5 months after IR at 18 Gy; P<0.05
Method: Mice exposed to thoracic IR develops pulmonary fibrosis 6 months after IR exposure at 18 Gy, 8 months after IR exposure at 15 Gy, and 10 months after IR exposure at 12.5 Gy. To access the treatment effects of GA on lung fibrosis and lung function, the respiratory rate, lung density, and lung compliance of the mice were determined. To assess improvement on respiratory function, mice exposed to thoracic IR at 15 Gy were treated with GA (30-40 mg/kg) q.o.d. or twice/week for 3 months. Mouse respiratory rate was measured using a Harvard rodent ventilator connected to a pressure plethysmograph.

[3] = test system: inflammatory mediators (IMs), including IL1a, TNFa, PF4 and VCAM-1; test: Inflammatory mediators in lung homogenates by ELISA, acute phase of IR-induced pneumonitis; assay type: in vivo, C57BL/6 fibrosis-prone mice; settings: 2.5 days after thoracic IR at 15 Gy, compared to vehicle-treated mice, p<0.05
Method: Briefly, C57BL/6 fibrosis-prone mice received a single-dose of thoracic IR at 15 Gy with a dose rate of 1.9 Gy/min. Six hours after IR exposure, the mice were divided into the following treatment groups: 1) normal (received 0 Gy; no treatment); 2) vehicle-treated; 3) GA-treated (30-40 mg/kg/ q.o.d) (i.e. every other day) (the GA dosage used herein was derived from the effective dosage for humans (3-4 mg/kg), which is typically 6-10 times lower than that of mice); 4) dexamethasone-treated (Positive Control 1) (Dex, 3 mg/kg, i.m. or p.o. qod); 5) amifostine-treated (Positive Control 2) (Ami, 200 mg/kg/ i.v, 0.5 hr prior to irradiation); and 6) celebrex-treated (Positive Control 3) (30 mg/kg, po, qod).
The mice were sacrificed 2.5 days after IR exposure, and fresh lung tissue homogenates were prepared using lysis buffer mixed with protenase inhibitor cocktails. After protein concentration was adjusted to 1 mg/ml, the fresh lung homogenates were added to ELISA plates at a concentration of 100 µl/well. The levels of inflammatory mediators were measured by ELISA.

hydroxyproline; TGFβ = test: Hydroxyproline and TGFβ levels in lungs; assay type: in vivo, mice
Description: The reduction of collagen deposition was further analyzed by measuring the levels of hydroxyproline, a key component of collagen.

IR-induced fibrosis = test: Lung histology (H&E stain, trichrome blue collagen stain) in IR-induced fibrosis; assay type: in vivo, mice; settings: GA 40 mg/kg/q.o.d. for 3 months; 7 months after IR exposure at 15 Gy
Method: Briefly, mice treated with GA (40 mg/kg/q.o.d.) for 3 months were sacrificed 7 months after IR exposure at 15 Gy, and lung tissue specimens were stained using hematoxylin and eosin (H&E) stain. […] To assess whether GA reduces abnormal collagen deposition in lungs, lung tissue specimen was stained with collagen-binding trichrome blue dye.

SP-D and IL1a = test: Plasma levels of SP-D and IL1a, acute phase of IR-induced pneumonitis; assay type: in vivo, C57BL/6 fibrosis-prone mice; settings: 2.5 days after thoracic IR at 15 Gy; P<0.05
Method: IR damages lung epithelium and endothelium cells, and causes dysfunction of tight junction, increased cellular permeability, and the loss of integrity of the alveolar-capillary barrier. As a result, SP-D and ILla abnormally enter into the blood from inflamed pulmonary tissue, leading to elevated plasma levels of SP-D and IL1a. In this Example, C57BL/6 fibrosis-prone mice received a single-dose of thoracic IR at 15 Gy with a dose rate of 1.9 Gy/min and were treated as described in Example 2. The mice were sacrificed 2.5 days after IR exposure, and plasma levels of SP-D and IL1a were measured.

IR-induced pneumonitis [4] = test: Lung morphology: plasma exudation and inflammatory cell infiltration, acute phase of IR-induced pneumonitis; assay type: in vivo, C57BL/6 fibrosis-prone mice; settings: 2.5 days after thoracic IR at 15 Gy
Method: Briefly, C57BL/6 fibrosis-prone mice received a single-dose of thoracic IR at 15 Gy with a dose rate of 1.9 Gy/min and were treated as described in Example 2. The mice were sacrificed 2.5 days after IR exposure, and lung tissues were harvested and analyzed for morphological changes.

[5] = test system: IL1a, TNFa, lymphotactin and p-selectin; test: Inflammatory mediators, GA given 24 hours after IR exposure; assay type: in vivo, mice; settings: GA administered 24 hours after IR exposure; thoracic IR at 5, 10 and 15 Gy
Method: The administration of GA 24 hours after IR exposure can effectively block the surge in inflammatory responses.

IR-induced pneumonitis [6] = test: Sub-acute phase of IR-induced pneumonitis: lung tissue and bronchoalveolar lavage fluid (BALF) assays; assay type: in vivo, C57BL/6 fibrosis-prone mice
Method: Briefly, C57BL/6 fibrosis-prone mice received a thoracic IR and were treated as described in Example 2. The mice were sacrificed 17 days after IR exposure, and lung tissues were harvested. Bronchoalveolar lavage fluid (BALF) assays were performed.

[7] = Long-term toxicity observation (activity, fur morphology, body weight); assay type: in vivo
Description: No mouse died during GA treatment.

[8] = test system: IR-induced pulmonary fibrosis; test: Lung density by cone beam CT scan (CBCT) in IR-induced pulmonary fibrosis; assay type: in vivo, mice; settings: for abnormal increase in lung density: 7.5 months after IR exposure at 15 Gy (Figure 14), P<0.05
Method: To assess effects of GA on lung density, cone beam CT scan (CBCT) of mouse lungs was performed. CBCT provides a complete 3D 650×650×428 scan (i.e. 428 slices) of the lungs with isotropic resolution at 270 µm (central slice shown in Fig. 11) in 30 seconds. The scanner achieves a CT density sensitivity of ∼[…], and thus, changes in lung density can be discerned. The CBCT imaging data were further analyzed using MATLAB software. The lungs were automatically segmented (Fig. 12A) and a 3D image was generated for each mouse lung (Fig. 12B). To reduce the effect of cardiac motion on the mean value of lung density, boundaries of the lungs were not used for analysis. A histogram of voxel intensity (pulmonary tissue density) of each mouse was created (Fig. 13).

[9] = test system: IR-induced pulmonary fibrosis; test: Lung compliance (plethysmograph pressure-volume measurements); assay type: in vivo, mice; settings: 6.5 months after IR exposure at 15 Gy; P<0.05
Method: To assess the effects of GA on lung compliance, mice were anesthetized and their trachea were surgically exposed and incised. An 18-gauge, 1 cm stainless steel tube was inserted into the trachea and secured with surgical sutures. The respiratory rate and tidal volume of the mice were measured by a Harvard rodent ventilator. The average respiratory rate was 150 breaths per minute and the tidal volume was adjusted according to the weight (0.01 ml per gram body weight). The mice were then placed in a plethysmograph for pressure-volume measurements.

growth hormone (GH) = test: Plasma growth hormone by ELISA during long-term treatment
Method: In addition, plasma levels of growth hormone (GH) were measured using ELISA at Weeks 6, 7, and 10 after GA treatments.

[10] = test system: ACTH (adrenocorticotropic hormone); settings: in vivo
Method: The chemical structure of GA is similar to that of cortisol. Thus, this Example investigates whether the long-term use of GA would affect the production of cortisol and cause side effects. The plasma levels of ACTH (adrenocorticotropic hormone), a cortisol-releasing hormone, were measured using ELISA at Weeks 6, 7, and 10 after GA-treatments (40 mg/kg, qod, p.o).

pulmonary fibrosis = test: Inventors' observation on dexamethasone in pulmonary fibrosis; assay type: in vivo; settings: compared to the non-treated controls
[11] = 17 days after IR exposure at 15 Gy, P<0.05
[12] = 17 days after IR exposure, P<0.05

SMILES: CC1(C)[C@@H](O[C@H]2O[C@H](C(=O)O)[C@@H](O)[C@H](O)[C@H]2O[C@@H]2O[C@H](C(=O)O)[C@@H](O)[C@H](O)[C@H]2O)CC[C@]2(C)[C@H]3C(=O)C=C4[C@@H]5C[C@@](C)(C(=O)O)CC[C@]5(C)CC[C@@]4(C)[C@]3(C)CC[C@@H]12 [GLA, glycyrrhizic acid]
- symptoms of pneumonitis or fibrosis (IR-induced pneumonitis [1]; 150 mg per day for 3 months from date of 2nd IR treatment): did not exhibit any symptom of pneumonitis or fibrosis
- lung density (CT) (IR-induced pneumonitis [1]; CT results of 1st versus 2nd IR treatment (Figure 20)): significantly reduced

SMILES: CC1(C)[C@@H](O)CC[C@]2(C)[C@H]3C(=O)C=C4[C@@H]5C[C@@](C)(C(=O)O)CC[C@]5(C)CC[C@@]4(C)[C@]3(C)CC[C@@H]12 [GA, glycyrrhetinic acid]
- respiratory rate [2]: effectively reduced
- levels of inflammatory mediators (IMs), including IL1a, TNFa, PF4 and VCAM-1 [3]: effectively reduced
- hydroxyproline levels in the lungs (hydroxyproline; TGFβ; compared to IR + vehicle control, P<0.05): reduced
- level of TGFβ (hydroxyproline; TGFβ; pro-fibrotic factor, Figure 18B): reduced
- collagen deposition caused by IR exposure (trichrome blue dye) (IR-induced fibrosis): reduces
- lung morphology (H&E stain) (IR-induced fibrosis): near-normal morphology
- plasma levels of IL1a (SP-D and IL1a): effectively reduced
- plasma levels of SP-D (SP-D and IL1a): effectively reduced
- plasma exudation and inflammatory cell infiltration into the interstitial space (IR-induced pneumonitis [4]): potently suppressed
- levels of key inflammatory mediators including IL1a, TNFa, lymphotactin and p-selectin [5]: potently reduced
- infiltration of neutrophils into the interstitial fluid (IR-induced pneumonitis [6]; 17 days after IR exposure at 15 Gy): suppression
- level of neutrophils infiltrated into the bronchoalveolar lavage fluid (IR-induced pneumonitis [6]; [11]): reduced
- myeloperoxidase (MPO) activity in (BALF) (IR-induced pneumonitis [6]; [11]): reduced
- level of lymphotactin (IR-induced pneumonitis [6]; [12]): reduced
- level of p-selectin (IR-induced pneumonitis [6]; [12]): reduced
- death during treatment ([7]; long-term use): No mouse died
- side effects of long-term use ([7]; mouse, in vivo): little side effects
- abnormal increase in lung density [8]: significantly reduced
- Mean Density (HU) ([8]; lung density, 1 year post IR exposure at 18 Gy): -458 HU
- lung compliance [9]: potently, and mostly effectively, enhanced
- plasma GH level (growth hormone (GH); in vivo): increased

SMILES: NCCCNCCSP(=O)(O)O [amifostine]
- levels of inflammatory mediators (IMs), including IL1a, TNFa, PF4 and VCAM-1 [3]: extent of inhibition by GA was comparable

SMILES: Cc1ccc(-c2cc(C(F)(F)F)nn2-c2ccc(S(N)(=O)=O)cc2)cc1 [celebrex, reference compound]
- levels of inflammatory mediators (IMs), including IL1a, TNFa, PF4 and VCAM-1 [3]: extent of inhibition by GA was comparable
- loss of body weight (BW) ([7]; 7.5 months post IR exposure at 15 Gy, vehicle-treated mice lost 6-7 grams): less severe loss of BW
- abnormal increase in lung density [8]: reduction in lung density by GA is more potent

SMILES: C[C@@H]1C[C@H]2[C@@H]3CCC4=CC(=O)C=C[C@]4(C)[C@@]3(F)[C@@H](O)C[C@]2(C)[C@@]1(O)C(=O)CO [dexamethasone]
- reduction in ACTH levels [10]: 10-50 fold
- plasma GH level (growth hormone (GH); measured at Weeks 6, 7, and 10): increased
- effect on pulmonary fibrosis (pulmonary fibrosis): worsening of pulmonary fibrosis
